In data set [1] the target is T1, xanthine oxidase (derived from butter milk) (Bos taurus, UniProt P80457).
T1 construct: xanthine oxidase (derived from butter milk, manufactured by Sigma); purchased Sigma; host or cells: buttermilk (natural source)
Description: Xanthine oxidase-inhibitory activity (pterin oxidation, fluorescence). In kind it is biochemical. Conditions: xanthine oxidase 0.03 units/ml, pterin 5 μM. The protocol:
A test compound was dissolved in DMSO (manufactured by Nakarai) so as to be a concentration of 10 mM and then used after the concentration was adjusted to an aimed one at use.
The evaluation of xanthine oxidase-inhibitory activity of the compound of the invention was carried out using a method described in a document (Free Radic. Biol. Med. 6, 607-615, 1992) with partial modification. Namely, xanthine oxidase (derived from butter milk, manufactured by Sigma) was adjusted to 0.03 units/ml using a 50 mM phosphate buffer and was added to a 96-well plate in an amount of 50 μl/well. Each test compound diluted so as to be a final concentration was added thereto in an amount of 2 μl/well, followed by treatment at room temperature for 20 minutes. Pterin (manufactured by Sigma) was added thereto so as to be a final concentration of 5 μM, followed by reaction at room temperature for 10 minutes. Measurement was performed using a microplate reader saphire (manufactured by Tecan) under conditions of excitation at 345 nm and emission at 390 nm (pterin was oxidized by xanthine oxidase into isoxanthopterin, which emitted a light under the conditions).
The concentration of the test compound at which 50% inhibition was observed (IC50 value) was calculated, the emissions of isoxanthopterin under conditions of the presence or absence of xanthine oxidase being 0% inhibition and 100% inhibition, respectively.

Another data set deals with male Wistar rats. Description: Trinitrobenzenesulfonic acid (TNBS)-induced enteritis-inhibitory action. In kind it is in vivo, rat. Conditions: 3 mg/kg oral once a day, 21st day. As to the method:
The effectiveness of the compound of the invention on an enteritis model can be also evaluated by a model using trinitrobenzenesulfonic acid (TNBS) as an inducing agent instead of acetic acid (Cell. Mol. Biol, 38, 189-199, 1992). Thus, referring to the method described in the report, the enteritis-suppressing action of the compound of the invention was evaluated.
Namely, TNBS or physiological saline as a normal group was administered into the rectum of male Wistar rats of 200 to 250 g. Thereafter, a test compound or 0.5% methyl cellulose (control group) was orally administered once a day and dissection was performed on each administered group on 21st day. A part of the large intestine 2 to 7 cm from the anus side was cut out and incised. After feces were removed by means of tweezers, the part was washed and a score of morbid conditions was evaluated and tissue weight was measured. The score of morbid conditions and a tissue weight increase-suppressing ratio were calculated as in the evaluation method of the above acetic acid-induced enteritis-suppressing action.

For data set [2], the system named is pyrimidine synthetic pathway. Description: Pyrimidine synthetic pathway-inhibitory action (influence on BUN level). In kind it is in vivo. The note with it: oral administration of 30 mg/kg. An excerpt: Allopurinol which is an existing hyperuricemia therapeutic drug is known to cause renal dysfunction as an undesirable action. As mentioned previously, since allopurinol has a nucleic acid-like structure, as one cause thereof, it is presumed that it inhibits pyrimidine synthetic pathway. […] Thus, according to the method described in the document, the influence of the compounds of the invention on a BUN level was confirmed.

The next data set deals with ICR mice. Briefly: Serum uric acid-lowering action after oral administration. The note with it: after 2 hours from oral administration, 1 mg/kg. The class given is in vivo. The protocol: A test compound was orally administered compulsorily to ICR mice using an oral sonde. After 2 hours, 6 hours, and, depending on the compound, further 24 hours from the administration, blood was collected from an abdominal aorta and then serum was separated in a usual manner. Serum uric acid was measured on an absorptiometer (SPECTRA MAX 190, manufactured by Molecular Device) by an uricase method using a uric acid-measuring kit (Uric Acid C-TestWako: Wako Pure Chemical Industries, Ltd.) and a uric acid-lowering ratio was determined according to the following equation. Uric acid-lowering ratio (%)=(Uric acid level of control animal−Uric acid level of test compound-administered animal)×100/Uric acid level of control animal

T1 sequence (P80457 whole entry): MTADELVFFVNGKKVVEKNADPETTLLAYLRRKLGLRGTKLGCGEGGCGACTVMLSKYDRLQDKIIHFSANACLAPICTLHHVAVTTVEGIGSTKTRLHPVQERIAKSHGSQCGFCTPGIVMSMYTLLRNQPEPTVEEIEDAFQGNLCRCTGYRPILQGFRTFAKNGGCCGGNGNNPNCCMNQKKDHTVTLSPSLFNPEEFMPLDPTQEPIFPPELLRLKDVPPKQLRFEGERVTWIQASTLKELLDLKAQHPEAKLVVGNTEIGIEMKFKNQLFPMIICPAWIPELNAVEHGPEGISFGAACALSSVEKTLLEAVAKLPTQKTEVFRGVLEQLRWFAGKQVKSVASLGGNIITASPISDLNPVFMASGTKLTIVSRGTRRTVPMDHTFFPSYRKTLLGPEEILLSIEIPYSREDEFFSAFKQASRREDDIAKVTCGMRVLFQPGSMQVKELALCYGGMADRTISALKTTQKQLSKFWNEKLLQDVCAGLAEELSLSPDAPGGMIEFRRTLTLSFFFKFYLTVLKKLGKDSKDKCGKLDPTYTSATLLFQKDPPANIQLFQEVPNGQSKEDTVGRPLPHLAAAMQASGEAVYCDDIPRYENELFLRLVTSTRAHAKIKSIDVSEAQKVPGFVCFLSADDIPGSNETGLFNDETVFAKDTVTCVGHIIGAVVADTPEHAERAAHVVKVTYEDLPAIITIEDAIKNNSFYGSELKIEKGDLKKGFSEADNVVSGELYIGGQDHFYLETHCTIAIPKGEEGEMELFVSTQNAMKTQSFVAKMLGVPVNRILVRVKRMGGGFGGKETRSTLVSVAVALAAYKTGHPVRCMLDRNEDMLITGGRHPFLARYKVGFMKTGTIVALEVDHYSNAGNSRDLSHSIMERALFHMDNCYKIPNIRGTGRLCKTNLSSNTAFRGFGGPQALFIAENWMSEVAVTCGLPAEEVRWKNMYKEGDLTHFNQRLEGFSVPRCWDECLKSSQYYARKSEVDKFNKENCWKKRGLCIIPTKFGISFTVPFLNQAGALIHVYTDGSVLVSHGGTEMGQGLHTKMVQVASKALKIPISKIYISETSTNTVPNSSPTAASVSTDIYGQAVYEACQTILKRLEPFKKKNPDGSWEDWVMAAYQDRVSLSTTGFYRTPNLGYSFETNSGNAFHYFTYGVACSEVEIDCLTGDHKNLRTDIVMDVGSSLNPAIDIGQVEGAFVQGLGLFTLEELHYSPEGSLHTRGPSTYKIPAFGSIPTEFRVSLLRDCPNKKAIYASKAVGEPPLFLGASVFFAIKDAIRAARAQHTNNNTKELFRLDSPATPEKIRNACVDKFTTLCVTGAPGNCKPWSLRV

What is called IC50 is the concentration at which inhibition is half-maximal. A higher IC50 goes with weaker potency in that assay. Take `N#CCCCOc1ccc(-c2ccc(C(=O)O)s2)cc1C#N` [Example 23]: in data set [1], half-maximal inhibition (IC50) required 13 nM.

Turning to `N#Cc1cc(-c2ccc(C(=O)O)s2)ccc1Oc1ccccc1` [Example 34], it took 6.3 nM to reach half-maximal inhibition in data set [1] (IC50). Compared with the last compound, the IC50 is about 2.1-fold lower.

Turning to `N#Cc1cc(-c2ccc(C(=O)O)s2)ccc1OCc1ccccc1` [Example 24], the IC50 in data set [1] amounted to 2.5 nM.

Compound `CC(C)COc1ccc(-c2ccc(-c3nnn[nH]3)s2)cc1[N+](=O)[O-]` [Example 5, 5-[5-(4-isobutoxy-3-nitrophenyl)-2-thienyl]-1H-tetrazole] yielded an IC50 in data set [1] of 9.3 nM.

The compound `CC(=O)c1cc(-c2ccc(C(=O)O)s2)ccc1OC1CCCC1` [Example 33] gave a 50% inhibitory concentration (IC50) in data set [1] of 5.9 nM.

`N#Cc1cc(-c2ccc(C(=O)O)s2)ccc1OCc1cccnc1` [Example 19] returned an IC50 in data set [1] of 2.8 nM.

`CC(C)CSc1ccc(-c2ccc(C(=O)O)s2)cc1C#N` [Example 9, sodium 5-[3-cyano-4-(isobutylthio)phenyl]thiophene-2-carboxylate] returned an IC50 in data set [1] of 2.9 nM. This IC50 and that of the compound before are within 1.5-fold of each other.

In data set [1], `CC(C)COc1ccc(-c2cc(F)c(C(=O)O)s2)cc1C#N` [Example 4, sodium 5-(3-cyano-4-isobutoxyphenyl)-3-fluorothiophene-2-carboxylate] returned an IC50 of 2.2 nM.

`N#Cc1cc(-c2cc(F)c(C(=O)O)s2)ccc1OC/C=C/c1ccccc1` [Example 47] showed an IC50 in data set [1] of 3.7 nM. Compared with the last compound, the IC50 is about 1.7-fold higher.

For `CCCCN(C)c1ccc(-c2ccc(C(=O)O)s2)cc1C#N` [Example 8, sodium 5-{4-[butyl(methyl)amino]-3-cyanophenyl)thiophene-2-carboxylate], in data set [1], the IC50 was 4.1 nM.

The compound `N#Cc1cc(-c2ccc(C(=O)O)s2)ccc1N1CCCCC1` [Example 27] yielded an IC50 in data set [1] of 1.8 nM.

Compound `CC(C)COc1ccc(-c2ccc(C(=O)O)s2)cc1[N+](=O)[O-]` [Example 3, 5-(3-nitro-4-isobutoxyphenyl)thiophene-2-carboxylic acid] came in with an IC50 in data set [1] of 6.9 nM.

`CC1CCN(c2ccc(-c3ccc(C(=O)O)s3)cc2C#N)CC1` [Example 30]: half-maximal inhibition in data set [1] (IC50) required 2 nM.

With `N#Cc1cc(-c2ccc(C(=O)O)s2)ccc1OCCn1cccc1` [Example 22], in data set [1], the IC50 was found to be 5.1 nM.

Regarding `CCCOc1ccc(-c2ccc(C(=O)[O-])s2)cc1C#N.[Na+]` [Example 1, sodium 5-(3-cyano-4-n-propoxyphenyl)thiophene-2-carboxylate], in the data set on male Wistar rats, the “suppression of intestinal tissue weight increase” value is ≥ 70%. For the same compound, half-maximal inhibition in data set [1] (IC50) was put at 3.2 nM. The “inhibitory action on pyrimidine synthetic pathway (influence on BUN level)” value in data set [2] was “no inhibitory action”. In addition, the uric acid-lowering ratio in the data set on ICR mice was determined as 66%.

In turn, `CC(C)COc1c(F)cc(-c2ccc(C(=O)O)s2)cc1C#N` [Example 54] registered an IC50 in data set [1] of 1.5 nM.

The values are drawn from US7612108B2, “2-phenylthiophene derivative” (Astellas Pharma Inc., priority 2004, dated 2009).
